Reference: article PMC8470483, “Bidirectional Influences of Cranberry on the Pharmacokinetics and Pharmacodynamics of Warfarin with Mechanism Elucidation” (Nutrients, 2021)
Read-outs that look alike come from different tables or passages of the source. Marks after values point to notes of the source that are not given here.

Columns and labels:
[1] = rats; for Change of AUC0–10 vs warfarin alone / Change of AUC0–t vs warfarin alone / Change of Cmax vs warfarin alone: CJ 5.0 g/kg 0.5 h before warfarin; for Effect of CJ on AUC0–t / Effect of CJ on Cmax: CJ given at 10 h after (±) warfarin; for Decrease of AUC0-t / Decrease of AUC0–10 / Decrease of Cmax: CJ ingestion at 0.5 h before (±) warfarin, vs warfarin alone; for AUC0–10 / AUC0–t / AUC48–96 / Cmax: mean ± S.E.
Experimental: In the pharmacokinetic interaction study, the rats were randomly divided into three groups (n = 7 in each group). The first group of rats was orally administered (±) warfarin (0.2 mg/kg) alone. The second and third groups of rats were administered CJ (5 g/kg) at 0.5 h prior to (±) warfarin and at 10 h after (±) warfarin dosing, respectively. The study was performed in a parallel design. Blood samples were drawn at 0.5, 1.0, 2.0, 6.0, 10, 24, 48, 72, and 96 h after (±) warfarin dosing and collected in a Vacutainer K2 EDTA tube (BD, New Jersey, USA). The blood samples were centrifuged to obtain plasma.
Briefly, 100 µL of plasma was mixed with 50 µL of 0.5N formic acid and then partitioned with 150 µL of ethyl acetate containing 10 µg/mL of caffeic acid as an internal standard.
The pharmacokinetic parameters were calculated by Phoenix WinNonlin® version 8.1 (Pharsight Corporation, St. Louis, MO, USA). The unpaired Student’s t-test and one-way ANOVA were used for statistical comparisons, taking p < 0.05 as significant.

CYP2C9 = CYP2C9 (Homo sapiens, UniProt P11712); test: Vivid CYP450 screening kit, CYP2C9 activity; conditions: positive control, 10 μM, in blank serum
Experimental: Vivid® CYP450 screening kits were used to evaluate the effects of CMs on the activities of CYP1A2, CYP2C9, and CYP3A4, individually [26, 27], and all the procedures were performed based on the standard protocols.

[2] = Measurement of INR in rats (anticoagulation effect of warfarin); assay type: in vivo; conditions: for INR value at 24 h: mean ± S.E.
Experimental: In the pharmacodynamic study, the rats were randomly divided into four groups (n = 8 in each group). In the first experiment, two groups of rats were orally administered (±) warfarin (0.2 mg/kg) alone and with CJ (5 g/kg) given at 0.5 h prior to (±) warfarin dosing, and blood samples were drawn at 6, 10 and 24 h after (±) warfarin dosing. In the second experiment, two groups of rats were orally administered (±) warfarin (0.2 mg/kg) with and without CJ (5 g/kg), given at 10 h after (±) warfarin dosing, and blood samples were drawn at 10, 24, and 48 h after (±) warfarin dosing.
Ten µL of blood was collected and the INR was measured using CoaguChek® XS System (Roche Diagnostics GmbH, Mannheim, Germany). All procedures followed the manufacturer’s protocol.

[3] = oral (±) warfarin 0.2 mg/kg + CJ 5.0 g/kg 0.5 h before warfarin
[4] = oral (±) warfarin 0.2 mg/kg + CJ 5.0 g/kg 10 h after warfarin
[5] = oral (±) warfarin 0.2 mg/kg alone

Chain of CYP2C9 (P11712 whole entry): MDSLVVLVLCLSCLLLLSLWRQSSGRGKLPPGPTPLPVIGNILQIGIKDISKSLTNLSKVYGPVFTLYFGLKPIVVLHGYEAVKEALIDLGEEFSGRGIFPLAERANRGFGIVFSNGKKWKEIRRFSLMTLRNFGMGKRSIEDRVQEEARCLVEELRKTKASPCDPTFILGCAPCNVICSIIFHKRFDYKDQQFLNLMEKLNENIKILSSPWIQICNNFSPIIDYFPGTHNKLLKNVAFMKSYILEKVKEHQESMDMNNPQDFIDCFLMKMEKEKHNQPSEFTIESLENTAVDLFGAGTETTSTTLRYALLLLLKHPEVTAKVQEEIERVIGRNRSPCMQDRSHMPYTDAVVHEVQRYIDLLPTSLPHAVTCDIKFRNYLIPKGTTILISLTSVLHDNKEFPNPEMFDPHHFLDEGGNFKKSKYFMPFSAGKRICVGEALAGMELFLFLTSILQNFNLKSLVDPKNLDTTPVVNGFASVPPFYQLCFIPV

SMILES: CC(=O)C[C@@H](c1ccccc1)c1c(O)c2ccccc2oc1=O [S-warfarin]
- Change of AUC0–10 vs warfarin alone [1]: (−52%)
- Change of AUC0–t vs warfarin alone [1]: (−34%)
- Change of Cmax vs warfarin alone [1]: (−48%)
- Effect of CJ on AUC0–t [1]: not affected
- Effect of CJ on Cmax [1]: not affected
- Decrease of AUC0-t [1]: 34%
- Decrease of AUC0–10 [1]: 52%
- Decrease of Cmax [1]: 48%
- AUC0–10 [1, 3]: 1561.8 ± 217.3 ^b h⋅ng/mL
- AUC0–t [1, 3]: 6286.7 ± 456.3 ^b h⋅ng/mL
- AUC48–96 [1, 3]: 1041.3 ± 296.5 ^a h⋅ng/mL
- Cmax [1, 3]: 216.3 ± 18.1 ^b ng/mL
- AUC0–10 [1, 4]: 3846.6 ± 260.8 ^a h⋅ng/mL
- AUC0–t [1, 4]: 11,555.0 ± 613.6 ^a h⋅ng/mL
- AUC48–96 [1, 4]: 2547.9 ± 339.5 ^b h⋅ng/mL
- Cmax [1, 4]: 542.0 ± 59.4 ^a ng/mL
- AUC0–10 [1, 5]: 3267.7 ± 423.2 ^a h⋅ng/mL
- AUC0–t [1, 5]: 9459.1 ± 1659.6 ^a h⋅ng/mL
- AUC48–96 [1, 5]: 1126.6 ± 434.5 ^a h⋅ng/mL
- Cmax [1, 5]: 418.2 ± 69.4 ^a ng/mL

SMILES: Nc1ccc(S(=O)(=O)Nc2ccnn2-c2ccccc2)cc1 [SFZ, sulfaphenazole]
- Decrease of CYP2C9 activity (CYP2C9): 19%

SMILES: CC(=O)C[C@H](c1ccccc1)c1c(O)c2ccccc2oc1=O [R-warfarin]
- Change of AUC0–10 vs warfarin alone [1]: (−54%)
- Change of AUC0–t vs warfarin alone [1]: (−52%)
- Change of Cmax vs warfarin alone [1]: (−51%)
- Effect of CJ on AUC0–t [1]: not affected
- Effect of CJ on Cmax [1]: not affected
- Decrease of AUC0-t [1]: 52%
- Decrease of AUC0–10 [1]: 54%
- Decrease of Cmax [1]: 51%
- AUC0–10 [1, 3]: 1310.8 ± 169.6 ^b h⋅ng/mL
- AUC0–t [1, 3]: 3007.6 ± 230.0 ^b h⋅ng/mL
- AUC48–96 [1, 3]: 90.4 ± 58.2 h⋅ng/mL
- Cmax [1, 3]: 168.6 ± 17.2 ^b ng/mL
- AUC0–10 [1, 4]: 2943.7 ± 185.7 ^a h⋅ng/mL
- AUC0–t [1, 4]: 4739.3 ± 255.0 ^ab h⋅ng/mL
- Cmax [1, 4]: 402.8 ± 33.6 ^a ng/mL
- AUC0–10 [1, 5]: 2848.9 ± 395.0 ^a h⋅ng/mL
- AUC0–t [1, 5]: 6209.2 ± 1253.4 ^a h⋅ng/mL
- AUC48–96 [1, 5]: 222.0 ± 125.3 h⋅ng/mL
- Cmax [1, 5]: 341.1 ± 56.6 ^a ng/mL

SMILES: CC(=O)CC(c1ccccc1)c1c(O)c2ccccc2oc1=O (racemic) [(±) warfarin, (±) Warfarin sodium]
- INR value at 24 h ([2]; control rats, oral (±) warfarin 0.2 mg/kg alone): 1.4 ± 0.1
- INR value at 24 h compared with control rats ([2]; rats, CJ given 0.5 h prior to warfarin): not different from the control rats
- Increase of INR value at 24 h vs control rats ([2]; rats, CJ given 10 h after warfarin): 93%
- INR value at 24 h ([2]; rats, oral (±) warfarin 0.2 mg/kg + CJ 5 g/kg given 0.5 h prior to warfarin): 1.6 ± 0.1
- INR value at 24 h ([2]; rats, oral (±) warfarin 0.2 mg/kg + CJ 5 g/kg given 10 h later): 2.7 ± 0.5
